{"source": "patent US20030181436A1", "about": "“Treatment for AIDS, HIV, and other related diseases and compounds for use therewith” (priority 2001, published 2003)", "type_in_all_cases": "cell-based", "key": {"HeLa CD4 LTR B-gal cells": {"system": "HeLa CD4 LTR B-gal cells", "experiment": "Attachment assay, toxicity on sister plates by MTS", "conditions": "for TC50: attachment assay", "method": "(§1) The attachment assay was performed with the HeLa CD4 LTR B-gal cells available from the AIDS Research and Reference Reagent Repository. […] HeLa CD4 LTR B-gal cells express cell surface CD4 and contain an LTR B-galactosidase reporter construct. Upon infection either the Tat protein incorporated into the virion or new Tat produced following virus integration and transcription trans-activate the LTR B-gal reporter, leading to expression of the B-galactosidase enzyme. HeLa CD4 LTR B-gal cells are routinely cultured with the required selection antibiotics and scrended for mycoplasma contamination. Twenty-four h prior to initiation of the assay cells were trypsinized, counted and 1×10^4 cells placed in a 0.2 cm well in media without selection antibiotics. Media was removed and compound media placed on the cells and incubated for 15 to 30 min at 37° C. A known titer of virus was then added to the wells and the incubation continued for 1 h. At the end of the incubation the wells were washed 6 times with media and the culture continued for 48 h. At 48 h the wells were washed one time with PBS and B-galactosidase enzyme expression determined by chemiluminescence per manufacturers instructions (Tropix Gal-screen TM, Tropix, Bedford, Mass.). Compound toxicity was monitored on sister plates using MTS dye reduction."}, "[1]": {"system": "HIV-1 attachment to HeLa CD4 LTR B-gal cells", "experiment": "Inhibition of attachment assay", "conditions": "for IC50: attachment assay", "method": "as §1, with “reduction. (See Tables 14 through 16 and FIGS. 21 and 22).” for “reduction.”"}, "HeLa CD4 LTR β-gal cells": {"system": "HeLa CD4 LTR β-gal cells", "experiment": "Cytotoxicity for HeLa CD4 LTR β-gal cells", "method": "At assay termination the assay plates were stained with the soluble tetrazolium-based dye MTS (CellTiter® Reagent, Promega) to determined cell viability and quantify compound toxicity. […] At termination of the assay 20 μL of MTS reagent was added per well. The wells were incubated for 4 h at 37° C., 5% CO2. Adhesive plate scalers were used in place of the lids, the sealed plate was inverted several times to mix the soluble formazan product and the plate was read spectrophotometrically at 490 nm with a 650 nm reference wavelength on a Molecular Devices Vmax plate reader.\nThis cell line represents one of 3 standard models for performing time of addition assays."}, "[2]": {"system": "HIV RoJo (a clinical isolate)", "experiment": "Chronically infected PBMCs, supernatant reverse transcriptase activity", "conditions": "7 day treatment", "method": "Reverse transcriptase activity was measured in cell-free supernatants. Tritiated thymidine triphosphate (NEN) (TTP) was resuspended in distilled H2O at 5 Ci/mL. Poly rA and oligo dT were prepared as a stock solution which was kept at −20° C. The RT reaction buffer was prepared fresh on a daily basis and consists of 125 μL 1.0 M EGTA, 125 μL dH2O, 110 μL 10% SDS, 50 μL 1.0 M Tris (pH 7.4), 50 μL, 1.0 M DTT, and 40 μL 1.0 M MgCl2. These three solutions were mixed together in a ratio of 2 parts TTP, 1 part poly rA:oligo dT, and 1 part reaction buffer. Ten microliters of this reaction mixture was placed in a round bottom microtiter plate and 15 μL of virus containing supernatant was added and mixed. The plate was incubated at 37° C. in a water bath with a solid support to prevent submersion of the plate and incubated for 60 minutes. Following reaction, the reaction volume was spotted onto pieces of DE81 paper, washed 5 times for 5 minutes each in a 5% sodium phosphate buffer, 2 times for 1 minute each in distilled water, 2 times for 1 minute each in 70% ethanol, and then dried. Opti-Fluor O was added to each sample and incorporated radioactivity was quantitated utilizing a Wallac 1450 Microbetaplus liquid scintillation counter.\nIn these studies PBMCs are infected with HIV RoJo (a clinical isolate) and a dynamic population of infected PBMCs established over a period of 2 to 3 weeks. This population of infected PBMCs was established and maintained by the addition of fresh PBMCs in a 1:1 ratio every 7 days, thus overcoming the lost of PBMCs to normal cell death processes. Thus a population of cells was established that consisted of uninfected cells, short lived infected cells and long lived infected cells. In experiments where AZT was added to prevent re-infection of the population, we typically saw a 50% reduction in infection following a 7 day treatment. This means that 50% of the virus production from the infected […] population was due re-infection. […] Thus there was a population of infected PBMCs present ([…] of the total) which survived for extended periods of time and thus met the definition of being chronically infected."}, "HIV": {"system": "HIV", "experiment": "PBMC time of addition assay", "conditions": "addition after 32 h of infection", "from_the_text": "FIGS. 18 and 19 show the results of the time of addition assay with the K and Z compound. In time of addition assays the timed addition of compounds after initial infection allows the identification of specific stages of virus replication. This is seen with the positive control compound AZT. AZT is a reverse transcriptase inhibitor. […] Thus it has an antiviral target that is occurring after completion of reverse transcription. […] In general since this time of addition uses multiple rounds of infection in the PBMCs versus a single round in cell lines systems, lower concentrations of compound will often shift the curve to the left. This is seen in FIG. 18."}}, "note": "Where two headings read alike, the source gives them in different places."}
{"smiles": "COc1cc(-c2ccc(/N=N/c3ccc4c(S(=O)(=O)O)cc(S(=O)(=O)O)c(N)c4c3O)c(OC)c2)ccc1/N=N/c1ccc2c(S(=O)(=O)O)cc(S(=O)(=O)O)c(N)c2c1O", "note": "[Chicago Sky Blue]", "values": [{"measurement": "% CC", "setting": "HeLa CD4 LTR B-gal cells; CONC 0.032", "result": 93.3, "unit": "%"}, {"measurement": "TOXICITY VALUES (Cell Titer) MEAN", "setting": "HeLa CD4 LTR B-gal cells; CONC 0.032", "result": 1.259, "unit": "O. D."}, {"measurement": "% CC", "setting": "HeLa CD4 LTR B-gal cells; CONC 0.1", "result": 80.8, "unit": "%"}, {"measurement": "TOXICITY VALUES (Cell Titer) MEAN", "setting": "HeLa CD4 LTR B-gal cells; CONC 0.1", "result": 1.090, "unit": "O. D."}, {"measurement": "% CC", "setting": "HeLa CD4 LTR B-gal cells; CONC 0.32", "result": 84.7, "unit": "%"}, {"measurement": "TOXICITY VALUES (Cell Titer) MEAN", "setting": "HeLa CD4 LTR B-gal cells; CONC 0.32", "result": 1.142, "unit": "O. D."}, {"measurement": "% CC", "setting": "HeLa CD4 LTR B-gal cells; CONC 1", "result": 82.6, "unit": "%"}, {"measurement": "TOXICITY VALUES (Cell Titer) MEAN", "setting": "HeLa CD4 LTR B-gal cells; CONC 1", "result": 1.115, "unit": "O. D."}, {"measurement": "% CC", "setting": "HeLa CD4 LTR B-gal cells; CONC 3.2", "result": 83.3, "unit": "%"}, {"measurement": "TOXICITY VALUES (Cell Titer) MEAN", "setting": "HeLa CD4 LTR B-gal cells; CONC 3.2", "result": 1.123, "unit": "O. D."}, {"measurement": "% CC", "setting": "HeLa CD4 LTR B-gal cells; CONC 10", "result": 73.3, "unit": "%"}, {"measurement": "TOXICITY VALUES (Cell Titer) MEAN", "setting": "HeLa CD4 LTR B-gal cells; CONC 10", "result": 0.989, "unit": "O. D."}, {"measurement": "TC50", "setting": "HeLa CD4 LTR B-gal cells", "result": ">10", "unit": "µg/mL"}, {"measurement": "TC50", "setting": "HeLa CD4 LTR B-gal cells; listed as CHICAGO SKY BLUE", "result": "TC50 (μG/mL) = >.10 μg/mL"}, {"measurement": "% VC", "setting": "[1]; CONC 0.032", "result": 90.6, "unit": "%"}, {"measurement": "RLU (Relative Light Units) MEAN", "setting": "[1]; CONC 0.032", "result": 127754.7, "unit": "RLU"}, {"measurement": "% VC", "setting": "[1]; CONC 0.1", "result": 74.5, "unit": "%"}, {"measurement": "RLU (Relative Light Units) MEAN", "setting": "[1]; CONC 0.1", "result": 105105.3, "unit": "RLU"}, {"measurement": "% VC", "setting": "[1]; CONC 0.32", "result": 48.2, "unit": "%"}, {"measurement": "RLU (Relative Light Units) MEAN", "setting": "[1]; CONC 0.32", "result": 67955.7, "unit": "RLU"}, {"measurement": "% VC", "setting": "[1]; CONC 1", "result": 10.9, "unit": "%"}, {"measurement": "RLU (Relative Light Units) MEAN", "setting": "[1]; CONC 1", "result": 15363.3, "unit": "RLU"}, {"measurement": "% VC", "setting": "[1]; CONC 3.2", "result": 8.3, "unit": "%"}, {"measurement": "RLU (Relative Light Units) MEAN", "setting": "[1]; CONC 3.2", "result": 11753.3, "unit": "RLU"}, {"measurement": "% VC", "setting": "[1]; CONC 10", "result": 8.0, "unit": "%"}, {"measurement": "RLU (Relative Light Units) MEAN", "setting": "[1]; CONC 10", "result": 11266.7, "unit": "RLU"}, {"measurement": "IC50", "setting": "[1]; Human immunodeficiency virus 1, HeLa, read-out: IC50", "result": 0.3, "unit": "µg/mL"}, {"measurement": "IC50", "setting": "[1]; listed as CHICAGO SKY BLUE", "result": "IC50 (μG/mL) = 0.30 μg/mL"}]}
{"smiles": "C[S+](C)[O-]", "note": "[DMSO]", "values": [{"measurement": "% CC", "setting": "HeLa CD4 LTR β-gal cells; dilution 1:50", "result": 111.0, "unit": "%"}, {"measurement": "TOXICITY VALUES (Cell Titer) MEAN", "setting": "HeLa CD4 LTR β-gal cells; dilution 1:50", "result": 1.167, "unit": "O. D."}, {"measurement": "% CC", "setting": "HeLa CD4 LTR β-gal cells; dilution 1:1600", "result": 103.2, "unit": "%"}, {"measurement": "TOXICITY VALUES (Cell Titer) MEAN", "setting": "HeLa CD4 LTR β-gal cells; dilution 1:1600", "result": 1.085, "unit": "O. D."}, {"measurement": "% CC", "setting": "HeLa CD4 LTR β-gal cells; dilution 1:5000", "result": 105.9, "unit": "%"}, {"measurement": "TOXICITY VALUES (Cell Titer) MEAN", "setting": "HeLa CD4 LTR β-gal cells; dilution 1:5000", "result": 1.113, "unit": "O. D."}, {"measurement": "% CC", "setting": "HeLa CD4 LTR β-gal cells; dilution 1:16000", "result": 99.1, "unit": "%"}, {"measurement": "TOXICITY VALUES (Cell Titer) MEAN", "setting": "HeLa CD4 LTR β-gal cells; dilution 1:16000", "result": 1.042, "unit": "O. D."}, {"measurement": "% CC", "setting": "HeLa CD4 LTR β-gal cells; dilution 1.500", "result": 101.0, "unit": "%"}, {"measurement": "TOXICITY VALUES (Cell Titer) MEAN", "setting": "HeLa CD4 LTR β-gal cells; dilution 1.500", "result": 1.062, "unit": "O. D."}, {"measurement": "% CC", "setting": "HeLa CD4 LTR β-gal cells; dilution 11110", "result": 111.0, "unit": "%"}, {"measurement": "TOXICITY VALUES (Cell Titer) MEAN", "setting": "HeLa CD4 LTR β-gal cells; dilution 11110", "result": 1.167, "unit": "O. D."}]}
{"smiles": "Cc1cn([C@H]2C[C@H](N=[N+]=[N-])[C@@H](CO)O2)c(=O)[nH]c1=O", "note": "[AZT, reference compound]", "values": [{"measurement": "reduction in infection", "setting": "[2]", "result": 50, "unit": "%"}, {"measurement": "effect on virus replication", "setting": "HIV", "result": "no significant effect"}]}
